Experimental data: patent publication US9695155B2, “Herbicidal substituted pyrimidinyloxy benzene compounds” (E. I. DU PONT DE NEMOURS AND COMPANY, priority 2013, dated 2017)

What was measured:
Experiment in all cases: Test F preemergence
Conditions in all cases: 21 days, scale 0 to 100
kochia = assay type: in vivo, Kochia scoparia
Excerpt: (§1) Seeds of plant species selected from bermudagrass (Cynodon dactylon), surinam grass (Brachiaria decumbens), large (Lg) crabgrass (Digitaria sanguinalis), crabgrass, naked (naked crabgrass, Digitaria nuda), foxtail, green (green foxtail, Setaria viridis), johnsongrass (Sorghum halepense), kochia (Kochia scoparia), morningglory (pitted morningglory, Ipomoea lacunosa), nutsedge, purple (purple nutsedge, Cyperus rotundus), ragweed (common ragweed, Ambrosia elatior), mustard, black (black mustard, Brassica nigra), guineagrass (Panicum maximum), dallisgrass (Paspalum dilatatum), barnyardgrass (Echinochloa crus-galli), sandbur (southern sandbur, Cenchrus echinatus), sowthistle (common sowthistle, Sonchus oleraceous), Italian ryegrass (Lolium multiflorum), signalgrass (broadleaf signalgrass, Brachiaria platyphylla), dayflower (Virginia (VA) dayflower, Commelina virginica), bluegrass (annual bluegrass, Poa annua), quackgrass (Elytrigia repens), mallow (common mallow, Malva sylvestris), buckwheat, wild (wild buckwheat, Polygonum convolvulus), leafy spurge (Euphorbia esula), chickweed (common chickweed, Stellaria media), wild poinsettia (Euphorbia heterophylla), and pigweed (Amaranthus retroflexus) were planted into a blend of loam soil and sand and treated preemergence with test chemicals formulated in a non-phytotoxic solvent mixture which included a surfactant.
(§2) Treated plants and controls were maintained in a greenhouse for 21 days, after which time all species were compared to controls and visually evaluated. Plant response ratings, summarized in Table F, are based on a scale of 0 to 100 where 0 is no effect and 100 is complete control. A dash (-) response means no test result.

bluegrass = assay type: in vivo, Poa annua
Excerpt: as §1, §2

mustard, black = assay type: in vivo, Brassica nigra
Excerpt: as §1, §2

sandbur = assay type: in vivo, Cenchrus echinatus
Excerpt: as §1, §2

quackgrass = assay type: in vivo, Elytrigia repens
Excerpt: as §1, §2

signalgrass = assay type: in vivo, Brachiaria platyphylla
Excerpt: as §1, §2

Italian ryegrass = assay type: in vivo, Lolium multiflorum
Excerpt: as §1, §2

barnyardgrass = assay type: in vivo, Echinochloa crus-galli
Excerpt: as §1, §2

pigweed = assay type: in vivo, Amaranthus retroflexus
Excerpt: as §1, §2

leafy spurge = assay type: in vivo, Euphorbia esula
Excerpt: as §1, §2

[1] = system: morningglory (pitted morningglory); assay type: in vivo, Ipomoea lacunosa
Excerpt: as §1, §2

buckwheat, wild = assay type: in vivo, Polygonum convolvulus
Excerpt: as §1, §2

surinam grass = assay type: in vivo, Brachiaria decumbens
Excerpt: as §1, §2

nutsedge, purple = assay type: in vivo, Cyperus rotundus
Excerpt: as §1, §2

dayflower = assay type: in vivo, Commelina virginica
Excerpt: as §1, §2

crabgrass, naked = assay type: in vivo, Digitaria nuda
Excerpt: as §1, §2

guineagrass = assay type: in vivo, Panicum maximum
Excerpt: as §1, §2

wild poinsettia = assay type: in vivo, Euphorbia heterophylla
Excerpt: as §1, §2

johnsongrass = assay type: in vivo, Sorghum halepense
Excerpt: as §1, §2

mallow = assay type: in vivo, Malva sylvestris
Excerpt: as §1, §2

## N#Cc1cccc(Oc2ncc(Cl)cn2)c1-n1cc(C(F)(F)F)cn1 [Compound 58, 3-[(5-chloro-2-pyrimidinyl)oxy]-2-[4-(trifluoromethyl)-1H-pyrazol-1-yl]benzonitrile]
kochia; 16 g ai/ha
  Plant response rating, Kochia: 98
kochia; 31 g ai/ha
  Plant response rating, Kochia: 100
kochia; 62 g ai/ha
  Plant response rating, Kochia: 100
kochia; 125 g ai/ha
  Plant response rating, Kochia: 100
kochia; 250 g ai/ha
  Plant response rating, Kochia: 100
bluegrass; 16 g ai/ha
  Plant response rating, Bluegrass: 50
bluegrass; 31 g ai/ha
  Plant response rating, Bluegrass: 80
bluegrass; 62 g ai/ha
  Plant response rating, Bluegrass: 98
bluegrass; 125 g ai/ha
  Plant response rating, Bluegrass: 98
bluegrass; 250 g ai/ha
  Plant response rating, Bluegrass: 100
mustard, black; 16 g ai/ha
  Plant response rating, Mustard, Black: 100
mustard, black; 31 g ai/ha
  Plant response rating, Mustard, Black: 100
mustard, black; 62 g ai/ha
  Plant response rating, Mustard, Black: 100
mustard, black; 125 g ai/ha
  Plant response rating, Mustard, Black: 100
mustard, black; 250 g ai/ha
  Plant response rating, Mustard, Black: 100
sandbur; 16 g ai/ha
  Plant response rating, Sandbur: 10
sandbur; 31 g ai/ha
  Plant response rating, Sandbur: 35
sandbur; 62 g ai/ha
  Plant response rating, Sandbur: 95
sandbur; 125 g ai/ha
  Plant response rating, Sandbur: 100
sandbur; 250 g ai/ha
  Plant response rating, Sandbur: 100
quackgrass; 16 g ai/ha
  Plant response rating, Quackgrass: 50
quackgrass; 31 g ai/ha
  Plant response rating, Quackgrass: 70
quackgrass; 62 g ai/ha
  Plant response rating, Quackgrass: 98
quackgrass; 125 g ai/ha
  Plant response rating, Quackgrass: 100
quackgrass; 250 g ai/ha
  Plant response rating, Quackgrass: 100
signalgrass; 16 g ai/ha
  Plant response rating, Signalgrass: 95
signalgrass; 31 g ai/ha
  Plant response rating, Signalgrass: 100
signalgrass; 62 g ai/ha
  Plant response rating, Signalgrass: 100
signalgrass; 125 g ai/ha
  Plant response rating, Signalgrass: 100
signalgrass; 250 g ai/ha
  Plant response rating, Signalgrass: 100
Italian ryegrass; 16 g ai/ha
  Plant response rating, Ryegrass, Italian: 35
Italian ryegrass; 31 g ai/ha
  Plant response rating, Ryegrass, Italian: 95
Italian ryegrass; 62 g ai/ha
  Plant response rating, Ryegrass, Italian: 98
Italian ryegrass; 125 g ai/ha
  Plant response rating, Ryegrass, Italian: 100
Italian ryegrass; 250 g ai/ha
  Plant response rating, Ryegrass, Italian: 100
barnyardgrass; 16 g ai/ha
  Plant response rating, Barnyardgrass: 70
barnyardgrass; 31 g ai/ha
  Plant response rating, Barnyardgrass: 100
barnyardgrass; 62 g ai/ha
  Plant response rating, Barnyardgrass: 100
barnyardgrass; 125 g ai/ha
  Plant response rating, Barnyardgrass: 100
barnyardgrass; 250 g ai/ha
  Plant response rating, Barnyardgrass: 100
pigweed; 16 g ai/ha
  Plant response rating, Pigweed: 100
pigweed; 31 g ai/ha
  Plant response rating, Pigweed: 100
pigweed; 62 g ai/ha
  Plant response rating, Pigweed: 100
pigweed; 125 g ai/ha
  Plant response rating, Pigweed: 100
pigweed; 250 g ai/ha
  Plant response rating, Pigweed: 100
Leafy spurge; 16 g ai/ha
  Plant response rating, Leafy Spurge: 100
Leafy spurge; 31 g ai/ha
  Plant response rating, Leafy Spurge: 95
Leafy spurge; 62 g ai/ha
  Plant response rating, Leafy Spurge: 100
Leafy spurge; 125 g ai/ha
  Plant response rating, Leafy Spurge: 100
Leafy spurge; 250 g ai/ha
  Plant response rating, Leafy Spurge: 100
[1]; 16 g ai/ha
  Plant response rating, Morningglory: 100
[1]; 31 g ai/ha
  Plant response rating, Morningglory: 98
[1]; 62 g ai/ha
  Plant response rating, Morningglory: 100
[1]; 125 g ai/ha
  Plant response rating, Morningglory: 100
[1]; 250 g ai/ha
  Plant response rating, Morningglory: 100
buckwheat, wild; 16 g ai/ha
  Plant response rating, Buckwheat, Wild: 90
buckwheat, wild; 31 g ai/ha
  Plant response rating, Buckwheat, Wild: 100
buckwheat, wild; 62 g ai/ha
  Plant response rating, Buckwheat, Wild: 100
buckwheat, wild; 125 g ai/ha
  Plant response rating, Buckwheat, Wild: 100
buckwheat, wild; 250 g ai/ha
  Plant response rating, Buckwheat, Wild: 100
Surinam grass; 16 g ai/ha
  Plant response rating, Surinam Grass: 25
Surinam grass; 31 g ai/ha
  Plant response rating, Surinam Grass: 60
Surinam grass; 62 g ai/ha
  Plant response rating, Surinam Grass: 98
Surinam grass; 125 g ai/ha
  Plant response rating, Surinam Grass: 100
Surinam grass; 250 g ai/ha
  Plant response rating, Surinam Grass: 100
nutsedge, purple; 16 g ai/ha
  Plant response rating, Nutsedge, Purple: 0
nutsedge, purple; 31 g ai/ha
  Plant response rating, Nutsedge, Purple: 60
nutsedge, purple; 62 g ai/ha
  Plant response rating, Nutsedge, Purple: 40
nutsedge, purple; 125 g ai/ha
  Plant response rating, Nutsedge, Purple: 70
nutsedge, purple; 250 g ai/ha
  Plant response rating, Nutsedge, Purple: 80
dayflower; 16 g ai/ha
  Plant response rating, Dayflower, VA: 90
dayflower; 31 g ai/ha
  Plant response rating, Dayflower, VA: 95
dayflower; 62 g ai/ha
  Plant response rating, Dayflower, VA: 100
dayflower; 125 g ai/ha
  Plant response rating, Dayflower, VA: 100
dayflower; 250 g ai/ha
  Plant response rating, Dayflower, VA: 100
crabgrass, naked; 16 g ai/ha
  Plant response rating, Crabgrass, Naked: 100
crabgrass, naked; 31 g ai/ha
  Plant response rating, Crabgrass, Naked: 100
crabgrass, naked; 62 g ai/ha
  Plant response rating, Crabgrass, Naked: 100
crabgrass, naked; 125 g ai/ha
  Plant response rating, Crabgrass, Naked: 100
crabgrass, naked; 250 g ai/ha
  Plant response rating, Crabgrass, Naked: 100
guineagrass; 16 g ai/ha
  Plant response rating, Guineagrass: 100
guineagrass; 31 g ai/ha
  Plant response rating, Guineagrass: 100
guineagrass; 62 g ai/ha
  Plant response rating, Guineagrass: 100
guineagrass; 125 g ai/ha
  Plant response rating, Guineagrass: 100
guineagrass; 250 g ai/ha
  Plant response rating, Guineagrass: 100
Wild poinsettia; 16 g ai/ha
  Plant response rating, Poinsettia, Wild: 25
Wild poinsettia; 31 g ai/ha
  Plant response rating, Poinsettia, Wild: 65
Wild poinsettia; 62 g ai/ha
  Plant response rating, Poinsettia, Wild: 100
Wild poinsettia; 125 g ai/ha
  Plant response rating, Poinsettia, Wild: 100
Wild poinsettia; 250 g ai/ha
  Plant response rating, Poinsettia, Wild: 100
johnsongrass; 16 g ai/ha
  Plant response rating, Johnsongrass: 65
johnsongrass; 31 g ai/ha
  Plant response rating, Johnsongrass: 98
johnsongrass; 62 g ai/ha
  Plant response rating, Johnsongrass: 100
johnsongrass; 125 g ai/ha
  Plant response rating, Johnsongrass: 100
johnsongrass; 250 g ai/ha
  Plant response rating, Johnsongrass: 100
mallow; 16 g ai/ha
  Plant response rating, Mallow: 60
mallow; 31 g ai/ha
  Plant response rating, Mallow: 100
mallow; 62 g ai/ha
  Plant response rating, Mallow: 98
mallow; 125 g ai/ha
  Plant response rating, Mallow: 100
mallow; 250 g ai/ha
  Plant response rating, Mallow: 100
